Earlier results, collected in US20250319084A1, “ENDOCRINE THERAPY AND ABEMACICLIB COMBINATION FOR THE ADJUVANT TREATMENT OF NODE-POSITIVE, EARLY STAGE, HORMONE RECEPTOR-POSITIVE, HUMAN EPIDERMAL GROWTH FACTOR RECEPTOR 2-NEGATIVE BREAST CANCER” (Eli Lilly and Company, priority 2017, published 2025).
Read-outs that look alike come from different tables or passages of the source.

Legend:
[1] = system: early neoadjuvant breast cancer; conditions: 150 mg twice daily, as monotherapy and in combination with anastrozole
[2] = system: HR+mBC
[3] = system: HR+metastatic breast cancer; conditions: JPBA Phase 1b, continuously dosed single agent, across dose levels, heavily pretreated HR+ metastatic breast cancer refractory to endocrine therapy
[4] = system: 46 breast cancer cell lines; conditions: panel of 46 breast cancer cell lines representing known molecular subgroups
[5] = system: human cancer xenografts, including breast cancer; conditions: multiple murine xenograft models for human cancer
[6] = nonclinical species
[7] = system: HR+metastatic breast cancer; conditions: MONARCH 1 Phase 2, single agent, 200-mg dose twice daily, heavily pretreated HR+ metastatic breast cancer refractory to endocrine therapy
[8] = system: HR+ early breast cancer involving axillary lymph nodes

Structure (SMILES) | safety profile [1] | reduction of tumor cell proliferation marker (Ki67 index) ([1]; versus anastrozole alone) | tolerability ([2]; JPBH Phase 1b, combined with standard endocrine therapies) | most common adverse events ([2]; JPBH, abemaciclib plus endocrine therapy, predominantly low-grade severity, appear dose-dependent) | response rate [3] [%] | growth inhibition in vitro (sensitivity by subgroup) [4] | tumor growth inhibition [5] | toxicity profile [6] | response rate [7] [%] | 4-year disease-free survival ([8]; BIG 1-98, patients with higher Ki67 values (>11%)) [%] | 4-year disease-free survival ([8]; BIG 1-98, patients with low (≤11%) Ki67 levels at baseline) [%]
CCN1CCN(Cc2ccc(Nc3ncc(F)c(-c4cc(F)c5nc(C)n(C(C)C)c5c4)n3)nc2)CC1 [Abemaciclib, [5-(4-ethyl-piperazin-1-ylmethyl)-pyridin-2-yl]-[5-fluoro-4-(7-fluoro-3-isopropyl-2-methyl-3H-benzoimidazol-5-yl)-pyrimidin-2-yl]-amine] | acceptable safety profile | to a significantly greater extent than anastrozole alone | tolerable | fatigue, nausea, diarrhea, leukopenia, lymphopenia, neutropenia, and anemia | 33.3 | sensitivity to CDK4 and CDK6 inhibition is greater in ER+breast cancers with luminal histology | significantly inhibit tumor growth | acceptable toxicity profile | 19.7 | – | –
N#Cc1ccc(C(c2ccc(C#N)cc2)n2cncn2)cc1 [letrozole] | – | – | – | – | – | – | – | – | – | 85 | 93
